From ChEMBL document CHEMBL1201862, “PubChem BioAssay data set” (2004)
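In this assay, cells in 96-well plates receive the compound at five concentrations for 48 hours. Endpoints are linearly interpolated between the surrounding concentrations. GI50 = concentration required for 50% inhibition of growth.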 Active and inactive are the calls of the source. Cut-off read from the data, not from the text of the source: active = GI50 up to about 1.1 µM and inactive = higher. Where a SMILES comes first, the peptide text is derived from it. The star is where a group is joined. Boc = CC(C)(C)OC(=O)*; OBn = c1ccc(CO*)cc1

Experiments:
Experiment in all cases: growth of human tumour cells (NCI), 48 h
[1] = test system: 786-0
[2] = test system: A498
[3] = test system: CAKI-1
[4] = test system: CCRF-CEM
[5] = test system: HCC 2998
[6] = test system: HCT-15
[7] = test system: HT-29
[8] = test system: MDA-N
[9] = test system: NCI-H226
[10] = test system: OVCAR-3
[11] = test system: OVCAR-8
[12] = test system: RXF 393
[13] = test system: SF-539
[14] = test system: SK-MEL-5
[15] = test system: SN12C
[16] = test system: SNB-75
[17] = test system: SR
[18] = test system: U-251
[19] = test system: UO-31

**Q.** What does the source list for NN=C(CC(O)(C(F)(F)Cl)C(F)(F)Cl)CC(O)(C(F)(F)Cl)C(F)(F)Cl?
**A.** GI50 [1]: > 10 µM (inactive); GI50 [2]: > 10 µM (inactive); GI50 [3]: > 10 µM (inactive); GI50 [4]: > 10 µM (inactive); GI50 [5]: > 10 µM (inactive); GI50 [6]: > 10 µM; GI50 [7]: > 10 µM (inactive); GI50 [8]: > 10 µM (inactive); GI50 [9]: > 10 µM (inactive); GI50 [10]: > 10 µM (inactive); GI50 [11]: > 10 µM (inactive); GI50 [12]: > 10 µM (inactive); GI50 [13]: > 10 µM (inactive); GI50 [14]: > 10 µM (inactive); GI50 [15]: > 10 µM (inactive); GI50 [16]: > 10 µM (inactive); GI50 [17]: > 10 µM (inactive); GI50 [18]: > 10 µM (inactive)

**Q.** What does the source list for COc1cc(COC(=O)N2CCC2C(=O)O)c([N+](=O)[O-])cc1OC (stereo not given)?
**A.** GI50 [1]: > 100 µM (inactive); GI50 [2]: > 100 µM (inactive); GI50 [4]: > 100 µM (inactive); GI50 [5]: > 100 µM (inactive); GI50 [6]: > 100 µM; GI50 [7]: > 100 µM (inactive); GI50 [8]: > 100 µM (inactive); GI50 [9]: > 100 µM (inactive); GI50 [10]: > 100 µM (inactive); GI50 [11]: > 100 µM (inactive); GI50 [12]: > 100 µM (inactive); GI50 [13]: > 100 µM (inactive); GI50 [14]: > 100 µM (inactive); GI50 [15]: > 100 µM (inactive); GI50 [16]: > 100 µM (inactive); GI50 [17]: > 100 µM (inactive); GI50 [18]: > 100 µM (inactive); GI50 [19]: > 100 µM (inactive)

**Q.** Which GI50 [1] does the source give for Cc1cc(S(=O)(=O)Nc2cc(N)n[nH]2)c(SCc2nc(N)nc(N(C)C)n2)cc1Cl here?
**A.** > 10 µM (inactive)

**Q.** And the GI50 [2]?
**A.** > 10 µM (inactive)

**Q.** What about the GI50 [3] of the same molecule?
**A.** > 10 µM (inactive)

**Q.** And the GI50 [4]?
**A.** > 10 µM (inactive)

**Q.** What about the GI50 [5] of the same molecule?
**A.** > 10 µM (inactive)

**Q.** And the GI50 [6]?
**A.** > 10 µM

**Q.** What about the GI50 [7] of the same molecule?
**A.** > 10 µM (inactive)

**Q.** What about the GI50 [8] of the same molecule?
**A.** > 10 µM (inactive)

**Q.** What about the GI50 [9] of the same molecule?
**A.** > 10 µM (inactive)

**Q.** What about the GI50 [10] of the same molecule?
**A.** > 10 µM (inactive)

**Q.** What about the GI50 [11] of the same molecule?
**A.** > 10 µM (inactive)

**Q.** What about the GI50 [12] of the same molecule?
**A.** > 10 µM (inactive)

**Q.** What about the GI50 [13] of the same molecule?
**A.** > 10 µM (inactive)

**Q.** And the GI50 [14]?
**A.** > 10 µM (inactive)

**Q.** What about the GI50 [15] of the same molecule?
**A.** > 10 µM (inactive)

**Q.** And the GI50 [16]?
**A.** > 10 µM (inactive)

**Q.** And the GI50 [17]?
**A.** > 10 µM (inactive)

**Q.** What about the GI50 [18] of the same molecule?
**A.** > 10 µM (inactive)

**Q.** And the GI50 [19]?
**A.** > 10 µM (inactive)

**Q.** How did the GI50 [1] turn out when Cn1c(=S)sc2nc3ccccc3n2c1=S was run?
**A.** 12.7 µM (inactive)

**Q.** What about the GI50 [2] of the same molecule?
**A.** 19.3 µM (inactive)

**Q.** And the GI50 [3]?
**A.** 14.6 µM (inactive)

**Q.** And the GI50 [4]?
**A.** 3.52 µM (inactive)

**Q.** What about the GI50 [5] of the same molecule?
**A.** 19.6 µM (inactive)

**Q.** And the GI50 [6]?
**A.** 13.2 µM

**Q.** What about the GI50 [7] of the same molecule?
**A.** 5.81 µM (inactive)

**Q.** And the GI50 [8]?
**A.** 12.6 µM (inactive)

**Q.** And the GI50 [9]?
**A.** 21.4 µM (inactive)

**Q.** What about the GI50 [10] of the same molecule?
**A.** 12.1 µM (inactive)

**Q.** What about the GI50 [11] of the same molecule?
**A.** 14.3 µM (inactive)

**Q.** What about the GI50 [12] of the same molecule?
**A.** 10.9 µM (inactive)

**Q.** And the GI50 [13]?
**A.** 12.8 µM (inactive)

**Q.** And the GI50 [14]?
**A.** 12.2 µM (inactive)

**Q.** What about the GI50 [15] of the same molecule?
**A.** 10.6 µM (inactive)

**Q.** And the GI50 [16]?
**A.** 16.5 µM (inactive)

**Q.** And the GI50 [17]?
**A.** 2.37 µM (inactive)

**Q.** What about the GI50 [18] of the same molecule?
**A.** 11.5 µM (inactive)

**Q.** What about the GI50 [19] of the same molecule?
**A.** 5.55 µM (inactive)

**Q.** Which results are given for O=C1Nc2ccccc2/C1=c1\[nH]c(=O)/c(=C\c2ccc(OCc3ccccc3)cn2)[nH]c1=O?
**A.** GI50 [1]: 18.8 µM (inactive); GI50 [2]: 27.3 µM (inactive); GI50 [3]: 0.303 µM (active); GI50 [4]: 39.5 µM (inactive); GI50 [5]: > 100 µM (inactive); GI50 [6]: 41.1 µM; GI50 [7]: > 100 µM (inactive); GI50 [8]: 83.2 µM (inactive); GI50 [9]: > 100 µM (inactive); GI50 [10]: > 100 µM (inactive); GI50 [11]: 78.7 µM (inactive); GI50 [12]: 8.17 µM (inactive); GI50 [13]: 18.2 µM (inactive); GI50 [14]: 64.6 µM (inactive); GI50 [15]: > 100 µM (inactive); GI50 [16]: 4.21 µM (inactive); GI50 [17]: 20.1 µM (inactive); GI50 [18]: 17.9 µM (inactive); GI50 [19]: < 0.01 µM (active)

**Q.** Which GI50 [1] does the source give for NCC(=O)Nc1ccc(S(=O)(=O)O)c2cc(S(=O)(=O)O)cc(S(=O)(=O)O)c12 here?
**A.** > 100 µM (inactive)

**Q.** What about the GI50 [2] of the same molecule?
**A.** > 100 µM (inactive)

**Q.** And the GI50 [3]?
**A.** > 100 µM (inactive)

**Q.** What about the GI50 [4] of the same molecule?
**A.** > 100 µM (inactive)

**Q.** What about the GI50 [5] of the same molecule?
**A.** > 100 µM (inactive)

**Q.** And the GI50 [6]?
**A.** > 100 µM

**Q.** And the GI50 [7]?
**A.** > 100 µM (inactive)

**Q.** And the GI50 [8]?
**A.** > 100 µM (inactive)

**Q.** What about the GI50 [9] of the same molecule?
**A.** > 100 µM (inactive)

**Q.** And the GI50 [10]?
**A.** > 100 µM (inactive)

**Q.** And the GI50 [11]?
**A.** > 100 µM (inactive)

**Q.** What about the GI50 [12] of the same molecule?
**A.** > 100 µM (inactive)

**Q.** And the GI50 [13]?
**A.** > 100 µM (inactive)

**Q.** And the GI50 [14]?
**A.** > 100 µM (inactive)

**Q.** What about the GI50 [15] of the same molecule?
**A.** > 100 µM (inactive)

**Q.** What about the GI50 [16] of the same molecule?
**A.** > 100 µM (inactive)

**Q.** What about the GI50 [17] of the same molecule?
**A.** > 100 µM (inactive)

**Q.** And the GI50 [18]?
**A.** > 100 µM (inactive)

**Q.** What about the GI50 [19] of the same molecule?
**A.** > 100 µM (inactive)

**Q.** How did the GI50 [1] turn out when CC(NC(=O)C(Cc1ccccc1)NC(=O)C(Cc1ccccc1)NC(=O)OC(C)(C)C)C(=O)OCc1ccccc1 (stereo not drawn) (Boc-Phe-Phe-Ala-OBn; configuration not given here) was run?
**A.** > 100 µM (inactive)

**Q.** What about the GI50 [2] of the same molecule?
**A.** > 100 µM (inactive)

**Q.** What about the GI50 [3] of the same molecule?
**A.** > 10 µM (inactive)

**Q.** What about the GI50 [4] of the same molecule?
**A.** 58.3 µM (inactive)

**Q.** And the GI50 [5]?
**A.** 54.2 µM (inactive)

**Q.** What about the GI50 [7] of the same molecule?
**A.** 75.9 µM (inactive)

**Q.** What about the GI50 [8] of the same molecule?
**A.** > 100 µM (inactive)

**Q.** And the GI50 [9]?
**A.** 6.05 µM (inactive)

**Q.** What about the GI50 [10] of the same molecule?
**A.** > 100 µM (inactive)

**Q.** What about the GI50 [11] of the same molecule?
**A.** > 100 µM (inactive)

**Q.** And the GI50 [12]?
**A.** 30.7 µM (inactive)

**Q.** What about the GI50 [13] of the same molecule?
**A.** 37.9 µM (inactive)

**Q.** And the GI50 [14]?
**A.** 94.2 µM (inactive)

**Q.** And the GI50 [15]?
**A.** > 100 µM (inactive)

**Q.** What about the GI50 [16] of the same molecule?
**A.** 50.8 µM (inactive)

**Q.** And the GI50 [17]?
**A.** 28.6 µM (inactive)

**Q.** And the GI50 [18]?
**A.** 63.7 µM (inactive)

**Q.** What about the GI50 [19] of the same molecule?
**A.** 27.7 µM (inactive)
